# Results taken from paper PMC3438169 (PLoS ONE, 2012).
# *1 amine or outer side, *2 acyl side, *3 side chain or, on linkers, in order; H or OH if unused. Where a SMILES comes first, the peptide text is derived from it. [ ]: non-standard residue; d: D form. dAla(ψthiazole) = C[C@@H](N[*:1])c1nc(C(=O)[*:2])cs1; Trp(4-OMe) = COc1cccc2[nH]cc(C[C@H](N)C(=O)O)c12; dAbu = CC[C@@H](N)C(=O)O; Dha = C=C(N)C(=O)O; Sar = CNCC(=O)O
# Legend:
# [1] = tested on: recombinant human mEF-G1 WT; assay: Biacore binding, human mEF-G1 WT; details: 10, 20, 40 µM, HBS-P+ pH 7.4, 4% DMSO
# Description: (§1) GFM1 encoding the active site of EF-G1 (residues 36–751) was PCR amplified from pDONR221 constructs using primers (GGGGACAAGTTTGTACAAAAAAGCAGGCTTAATGTCTTCATCAGGGGTGATT, GGGGACCACTTTGTACAAGAAAGCTGGGTATTAGTTCTTGGCTTTTCC). P. aeroginosa fusA1 encoding full-length EF-G was PCR amplified from pET28a-PaEFG-Nhis using primers (GGGGACCACTTTGTACAAGAAAGCTGGGTATTATCAACCTTGTTTTTT, GGGGACAAGTTTGTACAAAAAAGCAGGCTTAATGGCCCGTACTACACCC). Purified PCR products were cloned into the pDONR221 vector using Gateway cloning and BP Clonase II (Invitrogen), shuttled into an E.coli protein expression vector for N-terminal tagging (Avitag-His6 vector) using LR Clonase II (Invitrogen), and verified by sequencing. Avitag-His6-hEF-G1 and Avitag-His6-PaEF-G constructs were transformed into BL21-AI cells (Invitrogen) and isolated single colonies were used to inoculate 5 ml cultures which were grown overnight at 37°C with shaking. […]. Briefly, protein was captured on column using binding buffer (50 mM Tris; pH 7.5, 300 mM NaCl, 20 mM imidazole, 10% glycerol), washed extensively with washing buffer (50 mM Tris; pH 7.5, 500 mM NaCl, 30 mM imidazole, 10% glycerol), and then eluted with elution buffer (50 mM Tris; pH 7.5, 500 mM NaCl, 250 mM imidazole, 10% glycerol). […]
# [2] = tested on: recombinant human mEF-G1 L693Q; assay: Biacore binding, human mEF-G1 L693Q; details: 10, 20, 40 µM, HBS-P+ pH 7.4, 4% DMSO
# Description: as §1
# P. aeruginosa = assay: Resistant mutant selection, P. aeruginosa; assay type: cell-based; details: P. aeruginosa K767; solid medium containing 128 µg/ml argyrin B
# Description: (§2) Resistance frequencies were calculated as the number of CFU (mutants) on drug containing plates divided by the number of CFU plated. Whole genome sequencing was done as described previously. The fusA1 gene from P. aeruginosa was generated for sequencing in two parts, using primer pairs PAEFF1/PAEFR1: […]/[…] and EFF2/EFR1: […]/[…]. The fusA1 gene from B. multivorans was generated as a single band using BCEFGF1/BCEFGR1: […]/[…]. Nucleotide sequencing of the products was done by Agencourt (Beverly MA).
# B. multivorans [3] = assay: Broth microdilution susceptibility to argyrin B, B. multivorans strains; assay type: cell-based
# [4] = tested on: cytochrome c oxidase subunit 2 (COX2); assay: Immunoblot of mitochondrial-encoded COX2 in HCT116 and RKO cells; assay type: cell-based, human; details: 4 days
# Description: (§3) Whole cell lysates were prepared using RIPA buffer (Cell Signaling Technology) supplemented with EDTA-free protease inhibitor cocktail (Roche Applied Science), cleared by centrifugation at 16,000× g for 10 min, normalized based on protein concentration (Bio-Rad protein assay), boiled in NuPAGE LDS sample buffer (Invitrogen) supplemented with 2% ß-mercaptoethanol, and separated on NuPAGE 4–12% Bis-Tris gels using MOPS running buffer (Invitrogen). Proteins were transferred to nitrocellulose membranes and probed with the following primary antibodies: rabbit polyclonal antibody against mEF-G1 (Sigma, HPA034765), rabbit monoclonal antibody against GAPDH (Cell Signaling Technology, 14C10), mouse monoclonal antibodies against COX2 (Invitrogen, A6404) or SDHA (MitoSciences, MS204). Immobilized primary antibodies were visualized using HRP-conjugated anti-rabbit or anti-mouse IgG (Millipore, AP307P and AP308P) and enhanced chemiluminescence (Pierce).
# B. multivorans [5] = assay: Resistant mutant selection, B. multivorans; assay type: cell-based; details: Mueller-Hinton agar, 4 or 16 µg/ml argyrin B
# Description: as §2
# [6] = tested on: BYΔ8 strain with MEF1 mutations; assay: Yeast susceptibility determination, MEF1 mutants in BYΔ8 background; assay type: cell-based, S. cerevisiae; details: Figure 2D: all argyrin B concentrations in the range tested
# Description: Yeast strains used in this study are BY4741 [32] and strain BYΔ8, derived from BY4741 but deleted for eight genes involved in drug resistance (efflux pumps: snq2, pdr5, yor1; transcription factors: pdr1, pdr2, pdr3, yap1, yrm1). […] Starting OD600 was 0.1, total volume per well 120 µl. Plates were incubated at 30°C with 770 RPM orbital shaking.
# Strain BYΔ8 was incubated in 2.5% ethylmethanesulfonate until only 50% of the cells formed colonies. […] Amplifying the mutated MEF1 gene and transforming it into non-mutagenized BYΔ8 cells validated identified mutations in MEF1.
# [7] = tested on: Cox4-GFP labeled mitochondria; assay: Microscopy of mitochondrial morphology (Cox4-GFP); assay type: cell-based, S. cerevisiae; details: 3× IC30 (10 µM on YPEG), 30 minutes, ethanol/glycerol
# Description: BY4741 cells containing a genomic COX4-GFP fusion where grown to mid-log phase in glucose and ethanol/glycerol media and incubated with the corresponding concentrations of compound for 30 minutes. Aliquots where spotted on microscopy slides and directly imaged on a Zeiss Axiovert 200Mot microscope equipped with a AxioCam MRm digital camera using the Plan-Neofluar 100×, 1.3 oil PH3 objective (Carl Zeiss, Feldbach, Switzerland). A z-stack consisting of 3 images spaced by […] in the filterset 38 (eGFP) channel and a phase-contrast image where acquired. False colors where applied to the GFP images (green) and phase contrast (blue) and the images merged into one plane and scaled to 8-bit. Representative, individual cells where selected and assembled into a panel using Adobe Photoshop (Adobe Systems Inc.).
# [8] = tested on: recombinant human mEF-G1 S494F; assay: Biacore binding, human mEF-G1 S494F; details: 10, 20, 40 µM, HBS-P+ pH 7.4, 4% DMSO
# Description: as §1
# [9] = tested on: succinate dehydrogenase flavoprotein subunit (SDHA); assay: Immunoblot of nuclear-encoded SDHA in HCT116 and RKO cells; assay type: cell-based, human; details: 4 days
# Description: as §3
structure (smiles),measurement,setting,value
C=C1NC(=O)CN(C)C(=O)CNC(=O)[C@H](Cc2c[nH]c3cccc(OC)c23)NC(=O)[C@H](Cc2c[nH]c3ccccc23)NC(=O)c2csc(n2)[C@@H](C)NC(=O)[C@@H](CC)NC1=O [argyrin B] (cyclo([dAbu][dAla(ψthiazole)]W[Trp(4-OMe)]G[Sar][Dha])),Binding to human mEF-G1 (in words),[1],still bound
same,Binding to human mEF-G1 (in words),[2],little binding detected
same,frequency of mutants with decreased susceptibility,P. aeruginosa,circa 5×10^−8
same,Susceptibility to argyrin B,B. multivorans [3]; B. multivorans CDA0079 (FusA1 P484R),>32 µg/mL
same,Susceptibility to argyrin B,B. multivorans [3]; B. multivorans CDA0080 (FusA1 S415L),>32 µg/mL
same,Susceptibility to argyrin B,B. multivorans [3]; B. multivorans CDA0093 (FusA1 S415W),>32 µg/mL
same,Susceptibility to argyrin B,B. multivorans [3]; B. multivorans CDA0094 (FusA1 L656P),>32 µg/mL
same,Susceptibility to argyrin B,B. multivorans [3]; B. multivorans NB49004 (clinical isolate),1 µg/mL
same,COX2 protein level (in words),"[4]; HCT116, 1 µM argyrin B",depleted
same,COX2 protein level (in words),"[4]; RKO, 1 µM argyrin B",depleted
same,frequency of argyrin B resistant mutants,B. multivorans [5],10^−9–10^−8
same,Inhibition of the wild-type (MEF1wt) strain (in words),[6],full inhibiton of the wild-type strain
same,Mitochondrial morphology (in words),[7],mitochondrial morphology defects (fragmentation)
same,Binding to human mEF-G1 (in words),[8],still bound
same,SDHA protein level (in words),"[9]; HCT116, 1 µM argyrin B",did not affect the levels
same,SDHA protein level (in words),"[9]; RKO, 1 µM argyrin B",did not affect the levels
